Assay results reported in ChEMBL document CHEMBL1697781, “Assessment of the health effects of chemicals in humans: II. Construction of an adverse effects database for QSAR modeling” (Curr Drug Discov Technol, 2004).

Legend:
Settings in all cases: human; call rule not given here
[1] = tested on: Hepatotoxicity; experiment: FDA HLAED, alkaline phosphatase increase
[2] = tested on: Hepatotoxicity; experiment: FDA HLAED, serum glutamic pyruvic transaminase (SGPT) increase
[3] = tested on: Hepatotoxicity; experiment: FDA HLAED, liver enzyme composite activity
[4] = tested on: Hepatotoxicity; experiment: FDA HLAED, serum glutamic oxaloacetic transaminase (SGOT) increase
[5] = tested on: Hepatotoxicity; experiment: FDA HLAED, lactate dehydrogenase (LDH) increase
[6] = tested on: Hepatotoxicity; experiment: FDA HLAED, gamma-glutamyl transferase (GGT) increase
For GGT Increase - Index Value in this document: reference of the scale not given here.
For LDH Increase - Index Value in this document: reference of the scale not given here.

SMILES | Alkaline Phosphatase Increase - Activity Score [1] | Alkaline Phosphatase Increase - Index Value [1] | Alkaline Phosphatase Increase - Number of Reports [1] | SGPT Increase - Activity Score [2] | SGPT Increase - Index Value [2] | SGPT Increase - Number of Reports [2] | SGOT Increase - Activity Score [4] | SGOT Increase - Index Value [4] | SGOT Increase - Number of Reports [4] | LDH Increase - Activity Score [5] | LDH Increase - Index Value [5] | LDH Increase - Number of Reports [5] | GGT Increase - Activity Score [6] | GGT Increase - Index Value [6] | GGT Increase - Number of Reports [6] | Composite Activity - Active [3] | Composite Activity - Marginal [3] | Composite Activity - Score [3] | other results
CO[C@H]1/C=C/O[C@@]2(C)Oc3c(C)c(O)c4c(c3C2=O)C2=NC3(CCN(CC(C)C)CC3)NC2=C(NC(=O)/C(C)=C\C=C\[C@H](C)[C@H](O)[C@@H](C)[C@@H](O)[C@@H](C)[C@H](OC(C)=O)[C@@H]1C)C4=O [RIFABUTIN] | Active | 15.9 | >= 4 | Active | 31.8 | >= 4 | Active | 31.8 | >= 4 | Inactive | 5.3 | < 4 | Active | 18.5 | >= 4 | – | – | – | Composite Activity - Active ([3]; Liver): 4; Composite Activity - Marginal ([3]; Liver): 0; Composite Activity - Score ([3]; Liver): Active
Nc1nc2ccc(OC(F)(F)F)cc2s1 [RILUZOLE] | Active | 45.2 | < 4 | Inactive | 22.6 | < 4 | Inactive | 22.6 | < 4 | Inactive | 22.6 | < 4 | Inactive | 22.6 | < 4 | 1 | 0 | Inactive | –
CC(N)C12CC3CC(CC(C3)C1)C2 (centres undefined) [RIMANTADINE] | Inactive | 1.7 | < 4 | Inactive | 1.7 | < 4 | Inactive | 3.3 | < 4 | Inactive | 0 | < 4 | Inactive | 0 | < 4 | 0 | 0 | Inactive | –
CCC(=O)[C@@]1(C)[C@H](C)C[C@H]2[C@@H]3CCC4=CC(=O)C=C[C@]4(C)[C@H]3[C@@H](O)C[C@@]21C [RIMEXOLONE] | Inactive | 0 | < 4 | Inactive | 0 | < 4 | Inactive | 0 | < 4 | Inactive | 0 | < 4 | Inactive | 0 | < 4 | 0 | 0 | Inactive | –
Cc1nc2n(c(=O)c1CCN1CCC(c3noc4cc(F)ccc34)CC1)CCCC2 [RISPERIDONE] | Inactive | 1.6 | >= 4 | Active | 4.9 | >= 4 | Active | 4.8 | >= 4 | Inactive | 0.9 | >= 4 | Inactive | 1.6 | >= 4 | 2 | 0 | Active | –
CC(NCCc1ccc(O)cc1)C(O)c1ccc(O)cc1 (centres undefined) [RITODRINE] | Inactive | 1.1 | < 4 | Active | 4.2 | >= 4 | Active | 4.2 | >= 4 | Inactive | 0 | < 4 | Inactive | 0 | < 4 | 2 | 0 | Active | –
C=CC[N+]1([C@H]2C[C@H]3[C@@H]4CC[C@H]5C[C@H](O)[C@@H](N6CCOCC6)C[C@]5(C)[C@H]4CC[C@]3(C)[C@H]2OC(C)=O)CCCC1.[Br-] [ROCURONIUM BROMIDE] | Inactive | 0 | < 4 | Inactive | 0 | < 4 | Inactive | 0 | < 4 | Inactive | 0 | < 4 | Inactive | 0 | < 4 | 0 | 0 | Inactive | –
CCCN1CCCC[C@H]1C(=O)Nc1c(C)cccc1C [ROPIVACAINE] | Inactive | 0 | < 4 | Inactive | 0 | < 4 | Inactive | 0 | < 4 | Inactive | 0 | < 4 | Inactive | 0 | < 4 | 0 | 0 | Inactive | –
